For one compound, appearance of mixture results are on record in patent US6994551B2, “Stable self-etching primer and adhesive bonding resin compositions, systems, and methods” (Bisco, Inc., priority 2002, dated 2006).

Molecules are shown by their SMILES. Like-named read-outs stand apart in the source and are kept apart here.

Method: Several experiments were performed to evaluate the solubility of Bis-MEP in various solvent systems.

Take `C=C(C)C(=O)OCCOP(=O)(O)OCCOC(=O)C(=C)C` [Bis-MEP, Bis-[2-(methacryloyloxy)ethyl]phosphate]: the appearance of mixture result was “did not dissolve” (0.67 weight percent in water); “did not dissolve” (2 weight percent mixture in water); “not homogeneous” (10 weight percent in water (no ethanol)); “clear solution” (14.72 weight percent in ethanol 34.40 / water 50.88 weight percent, room temperature); “not homogeneous” (20 weight percent in water (no ethanol)).
